Patent EP4710949A1, “LYOPHILIZED PREPARATION, LYOPHILIZED SOLUTION, METHODS FOR PRODUCING SAME, AND LIQUID AGENT” (Goryo Chemical, Inc., priority 2023, dated 2024)
≈ marks a conversion by molar mass, not a printed value. Where “and” joins values, the source holds several entries; their conditions need not be identical. Identical values can stand only once.

Assays:
[1] = Dissolution test of Compound A (Test Example 1); format: physicochemical; details: 0.03% ps20, pH 7; 0.03 wt% PS20 solution (phosphate buffer)
Procedure: (§1) ·Column: Meteoric Core C8, 5 µm, 4.6 mm×150 mm (YMC Co., Ltd.) ·Column temperature: 25°C ·Feeding amount: 1.0 mL/min. ·Wavelength: 254 nm ·Mobile phase A: water/TFA (1,000:1), Mobile phase B: acetonitrile/TFA (1,000:1) ·Feeding of mobile phase Table 1
1 Milligram of Compound A and 10 mL of a 6.55 mM phosphate buffer (pH: 7) containing 0 wt% to 0.03 wt% of polysorbate 20 (FUJIFILM Wako Pure Chemical Corporation, hereinafter referred to as "PS20") or an aqueous solution of NaH2PO4 (0.33 mg/mL) containing 0 wt% to 0.03 wt% of PS20 were loaded into a glass vial having a volume of 20 mL, and air inside the vial was purged with nitrogen. The vial was loaded into Aluminum Lamizip, and the vial was shaken overnight. The phosphate buffer was prepared by using NaH2PO4 and Na2HPO4. The mixture was filtered with a PVDF filter (Millex-GV, 0.22 µm, PVDF, 4 mm), and the solution after 10 drops of its initial flow was collected. Thus, solutions having formulations 1 to 8 were obtained. The concentrations of Compound A in the resultant solutions were calculated by the HPLC measurement of the solutions.

[2] = Reconstitution of lyophilized preparation of Compound A in physiological saline (Test Example 8); format: physicochemical
Procedure: as §1
Physiological saline (physiological salt solution "OTSUKA NORMAL SALINE") was added to a lyophilized preparation produced according to the same formulation as the formulation 32 except the concentration of Compound A in the lyophilization solution, and the preparation was dissolved in the saline so that a liquid amount was 5 mL. Thus, a reconstituted solution (liquid preparation) of Compound A was obtained. The concentration of Compound A in the reconstituted solution was calculated by HPLC measurement, and the content of Compound A was calculated. […]

solubility [1]: 12.4 µg/mL (≈ 19.6 µM) | measured value of the concentration of Compound A ([2]; lyophilization solution used in the production of the lyophilized preparation (same formulation as formulation 32 except Compound A concentration)): 149.2 µg/mL | appearance of the reconstituted solution ([2]; lyophilized preparation dissolved in physiological saline, 5 mL): clear and free of visible particles | Final concentration of Compound A ([2]; reconstituted solution, 5 mL physiological saline, lyophilized preparation as formulation 32 except Compound A concentration): 29.9 µg/mL and 47.2 µM | Content of Compound A (%) ([2]; reconstituted solution, 5 mL physiological saline, ratio to content in lyophilization solution): 100.1%
SMILES: COCC(=O)N[C@@H](CC(C)C)C(=O)N[C@@H](CCSC)C(=O)Nc1ccc2c(c1)Oc1cc(N)ccc1C21OCc2ccccc21 (some centres unmarked) [Compound A]
